Assay results: patent US20260167637A1, “NLRP3 INFLAMMASOME INHIBITOR AND USE THEREOF” (TransThera Sciences (Nanjing), Inc., priority 2022, published 2026)
Read-outs that look alike come from different tables or passages of the source.

What was measured:
[1] = Pharmacokinetic study in mice; assay type: in vivo, female C57BL/6J mice; settings: female, C57BL/6J, mouse, plasma; for clearance: read-out: Cl—obs iv (clearance rate) (converted); for Vd: read-out: Vss iv (distribution volume); for bioavailability: po 10 mg/kg vs iv 5 mg/kg, read-out: F% (absolute bioavailability); for Tmax: median, read-out: Tmax po (time to peak plasma concentration); for Cmax: read-out: Cmax po (peak concentration)
Experimental: (§1) The compounds were prepared into solutions using a mixed vehicle composed of 5% dimethyl sulfoxide, 20% (30% solutol), and 75% normal saline. The compound solutions were intragastrically administered to female C57BL/6J mice at a dose of 10 mg/kg, and the blood collection time points were: 15 min, 30 min, 1 h, 2 h, 4 h, 6 h, 8 h, and 24 h.
as §1, with “intravenously injected into” for “intragastrically administered to”, “5” for “10”, “were: 5 min,” for “were:”
The samples to be tested were taken out from a −80° C. freezer, naturally thawed at room temperature, and then vortexed for 5 min.
Plasma samples of 10 μL from different individuals were accurately pipetted into 1.5 mL centrifuge tubes.
900 μL of a 100 ng/mL internal standard working solution (a solution of tolbutamide in acetonitrile) was added, and the mixture was well mixed.
After 5 min of vortexing, centrifugation was performed at 12,000 rpm for 5 min.
50 μL of the supernatant was accurately pipetted into a 96-well plate to which water was added in advance at 150 μL/well.
After 5 min of vortexing, LC-MS/MS analysis was performed.
The results of the test substance concentrations were output by Analyst 1.6.3 of AB Sciex.
Parameters such as mean, standard deviation, and coefficient of variation (excluding those output directly by Analyst 1.6.3) were calculated using Microsoft Excel. PK parameters were calculated using WinNonlin Phenoix 8.2 software NCA (Tmax was a median).

[2] = target: T1, THP-1 cell NLRP3 (Homo sapiens, UniProt Q96P20); experiment: Inhibitory activity against cell NLRP3 inflammasomes in THP-1 cells (LPS + nigericin, ELISA of supernatant); assay type: cell-based; settings: PMA-differentiated THP-1 cells, LPS 500 ng/mL 3 h, compound 1 h, nigericin 30 min; human IL-10 (so in the source) in supernatant by ELISA
T1 construct: endogenous in cells; host or cells: THP-1 cells, PMA-differentiated, stimulated with LPS and nigericin
T1 sequence (Q96P20 whole entry): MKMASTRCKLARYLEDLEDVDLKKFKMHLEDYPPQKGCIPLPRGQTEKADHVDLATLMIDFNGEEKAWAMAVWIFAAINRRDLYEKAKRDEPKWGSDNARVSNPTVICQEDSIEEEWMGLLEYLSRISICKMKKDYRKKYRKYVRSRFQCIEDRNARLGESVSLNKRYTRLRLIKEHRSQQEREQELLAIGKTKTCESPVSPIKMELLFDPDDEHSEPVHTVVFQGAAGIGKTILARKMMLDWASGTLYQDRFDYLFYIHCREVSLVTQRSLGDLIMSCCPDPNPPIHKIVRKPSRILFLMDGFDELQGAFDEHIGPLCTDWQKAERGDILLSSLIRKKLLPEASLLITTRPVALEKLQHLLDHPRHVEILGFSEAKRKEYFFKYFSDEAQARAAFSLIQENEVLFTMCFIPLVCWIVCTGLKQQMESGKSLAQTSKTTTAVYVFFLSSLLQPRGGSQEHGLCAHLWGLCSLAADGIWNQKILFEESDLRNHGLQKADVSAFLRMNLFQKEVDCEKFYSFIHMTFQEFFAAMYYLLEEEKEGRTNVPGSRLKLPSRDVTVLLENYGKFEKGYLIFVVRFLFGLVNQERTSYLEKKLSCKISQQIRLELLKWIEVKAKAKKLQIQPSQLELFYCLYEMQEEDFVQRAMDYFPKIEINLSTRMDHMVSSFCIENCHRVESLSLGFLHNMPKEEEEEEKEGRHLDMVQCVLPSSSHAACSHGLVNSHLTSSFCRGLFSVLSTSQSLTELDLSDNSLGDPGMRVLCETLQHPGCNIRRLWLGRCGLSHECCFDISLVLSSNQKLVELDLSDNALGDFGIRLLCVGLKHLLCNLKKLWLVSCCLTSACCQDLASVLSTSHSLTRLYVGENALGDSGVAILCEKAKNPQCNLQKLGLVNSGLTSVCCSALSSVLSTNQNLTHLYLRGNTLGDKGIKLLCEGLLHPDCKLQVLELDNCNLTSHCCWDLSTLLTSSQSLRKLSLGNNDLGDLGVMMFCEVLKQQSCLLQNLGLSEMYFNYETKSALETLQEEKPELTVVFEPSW
Experimental: Experimental Example 1: Assay for Inhibitory Activity of Compounds Disclosed Herein Against Cell NLRP3 Inflammasomes
Test substances: The compounds of the present disclosure, prepared according to the methods described in the examples.
THP-1 is an immortalized human […] cell line.
Instrument: microplate reader (made by PE)
Assay Method: 1. THP-1 cells were cultured in 1640 complete medium (500 mL of 1640+56 mL of FBS+560 μL of 1000×P/S+2 μL of mercaptoethanol), and cells at passages 3-20 were used.
2. Culture plate coating: 100 μL of polylysine solution was added to a 96-well cell culture plate. After 30 min of incubation at 37° C., the solution was discarded, and the plate was washed with PBS twice for later use.
3. Induction of THP-1 differentiation: THP-1 cells were resuspended in an appropriate amount of complete medium containing 10 ng/mL PMA to form a cell suspension with a density of 5×10^5 cells/mL. The suspension was added to the 96-well plate at 100 μL/well, and the plate was incubated overnight in a 37° C. carbon dioxide cell incubator for 16 h.
4. Stimulation of THP-1: • a. Serum-free THP-1 culture medium containing LPS was added, with the final concentration being 500 ng/mL. The plate was incubated in a 37° C. carbon dioxide cell incubator for 3 h. • b. Mother liquors of the compounds to be tested with gradient concentrations were prepared with DMSO, added to the cells, and well mixed. Dilution was finally performed in a 1:1000 ratio. The plate was incubated in a 37° C. carbon dioxide cell incubator for 1 h. • c. Nigericin was added to each well, with the final concentration being […]. The plate was incubated in a carbon dioxide cell incubator at 37° C. for 30 min. • d. The medium in the wells was transferred to a new culture plate, and after 5 min of centrifugation at 3000 rpm, the supernatant was transferred to a new 96-well plate. • e. The content of human […] in the collected cell culture supernatant samples was determined with a commercial ELISA kit by following the instructions.

[3] = Stability in canine liver microsomes; assay type: in vitro ADME; settings: dog, canine liver microsomes 0.5 mg protein/mL, 1 μM test substance, β-NADPH 1 mM, 37° C.; for half-life at 1 μM: read-out: Canine t1/2
Experimental: (§2) Experimental Example 2: Evaluation of Stability of Compounds Disclosed Herein in Liver Microsomes
(§3) Composition of experimental incubation system:
(§4) An appropriate amount of the compound was precisely weighed out and dissolved in DMSO to prepare a 10.0 mM stock solution. The 10.0 mM stock solution was diluted with DMSO to 1.0 mM, and then diluted with phosphate buffer (containing 3 mM MgCl2) to prepare a 10 μM test substance working solution for later use (DMSO content in the reaction system: 0.1%).
(§5) An appropriate amount of β-NADPH was precisely weighed out and then prepared into a 5 mM β-NADPH working solution using phosphate buffer (containing 3 mM MgCl2) for later use.
(§6) (1) The liver microsomes (20 mg protein/mL) were taken out from a −80° C. freezer and pre-incubated on a 37° C. water bath thermostatic oscillator for 3 min to thaw for later use.
(§7) (2) A mixed solution of the incubation system (without β-NADPH) was prepared according to “composition of experimental incubation system” described above, and pre-incubated on a 37° C. water bath thermostatic oscillator for 2 min.
(§8) (3) Control group (without β-NADPH): 10 μL of phosphate buffer (containing 3 mM MgCl2) and 40 μL of the mixed solution of the incubation system in step (2) were taken and mixed, and the mixture was vortexed for 30 s and mixed well, resulting in a total reaction volume of 50 μL; the sample was duplicated. The mixture was placed on a 37° C. water bath thermostatic oscillator for incubation, and timing was started, with termination time points set at 0 min and 60 min.
(§9) (4) Sample group: 10 μL of the β-NADPH solution (5 mM) and 40 μL of the mixed solution in step (2) were taken and mixed, resulting in a total reaction volume of 50 μL; the mixture was vortexed for 30 s and mixed well; the sample was duplicated. The mixture was placed on a 37° C. water bath thermostatic oscillator for incubation, and timing was started, with termination time points set at 0 min, 5 min, 10 min, 20 min, 30 min, and 60 min.
(§10) (5) The mixture was vortexed for 5 min and then centrifuged at 4000 rpm for 10 min.
(§11) (6) 50 μL of the supernatant was taken and added to 150 μL of water, and the resulting mixture was vortexed and mixed well before LC/MS/MS analysis.
(§12) The half-life (t1/2) and clearance rate (CL) were calculated using the following first-order kinetic formula
(§13) Notes: k denotes the slope of the logarithm of the remaining amount of a compound vs. time, and Vd denotes apparent volume of distribution.

[4] = Stability in rat liver microsomes; assay type: in vitro ADME; settings: rat liver microsomes 0.5 mg protein/mL, 1 μM test substance, β-NADPH 1 mM, 37° C.; for half-life at 1 μM: read-out: Rat t1/2
Experimental: as §2, §3, §4, §5, §6, §7, §8, §9, §10, §11, §12, §13

[5] = iv 5 mg/kg, read-out: AUClast iv (0-24 h)
[6] = iv 5 mg/kg, read-out: tz1/2 iv (terminal half-life) (converted)
[7] = po 10 mg/kg, read-out: AUClast po (0-24 h)
[8] = po 10 mg/kg, read-out: tz1/2 po (terminal half-life) (converted)

## CC#Cc1ccc(-c2nnc(N[C@@H]3CCCN(CCO)C3)cc2C2CC2)c(O)c1 [Compound 44, (R)-2-(4-cyclopropyl-6-((1-(2-hydroxyethyl)piperidin-3-yl)amino)pyridazin-3-yl)-5-(prop-1-yn-1-yl)phenol]
[1]; [5]
  AUC(0-t): 8960 ng·h/mL
[1]; iv 5 mg/kg
  clearance: 9.18 mL/min/kg
  Vd: 2.76 L/kg
[1]; [6]
  half-life: 3.95 h
[1]
  bioavailability: 69.1%
[1]; po 10 mg/kg
  Tmax: 0.5 h
  Cmax: 1710 ng/mL
[1]; [7]
  AUC(0-t): 12400 ng·h/mL
[1]; [8]
  half-life: 4.05 h
[2]
  IC50: 3.6 nM

## C#Cc1ccc(-c2nnc(N[C@@H]3CCCN(C)C3)cc2C2CCC2)c(O)c1 [Compound 82, (R)-5-ethynyl-2-(4-cyclobutyl-6-((1-methylpiperidin-3-yl)amino)pyridazin-3-yl)phenol]
[3]
  microsomal CLint at 1 μM: 8 µL/min/mg
  half-life at 1 μM: 2.88 h
[2]
  IC50: 1.1 nM
[4]
  microsomal CLint at 1 μM: 10.4 µL/min/mg
  half-life at 1 μM: 2.22 h

## C#Cc1ccc(-c2nnc(N[C@@H]3CCCC[C@H]3O)cc2C)c(O)c1 [Compound 83, 5-ethynyl-2-(6-(((1R,2R)-2-hydroxycyclohexyl)amino)-4-methylpyridazin-3-yl)phenol]
[3]
  microsomal CLint at 1 μM: 3.8 µL/min/mg
  half-life at 1 μM: 6.08 h
[2]
  IC50: 6.1 nM
[4]
  microsomal CLint at 1 μM: 10 µL/min/mg
  half-life at 1 μM: 2.32 h

## [2H]C([2H])([2H])N1CCC[C@@H](Nc2nnc(-c3ccc(C#C)cc3O)c(C)n2)C1 [Compound 86, (R)-5-ethynyl-2-(5-methyl-3-((1-(methyl-d3)piperidin-3-yl)amino)-1,2,4-triazin-6-yl)phenol]
[3]
  microsomal CLint at 1 μM: 6.6 µL/min/mg
  half-life at 1 μM: 3.5 h
[2]
  IC50: 0.3 nM
[4]
  microsomal CLint at 1 μM: 7.8 µL/min/mg
  half-life at 1 μM: 2.97 h

## [2H]C([2H])([2H])N1CCC[C@@H](Nc2nnc(-c3ccc(C#C)cc3O)n(C)c2=O)C1 [Compound 88, (R)-3-(4-ethynyl-2-hydroxyphenyl)-4-methyl-6-((1-(methyl-d3)piperidin-3-yl)amino)-1,2,4-triazin-5(4H)-one]
[3]
  microsomal CLint at 1 μM: 1.6 µL/min/mg
  half-life at 1 μM: 14.4 h
[2]
  IC50: 1.2 nM
[4]
  microsomal CLint at 1 μM: 2 µL/min/mg
  half-life at 1 μM: 11.6 h

## C#Cc1ccc(-c2nnc(N[C@@H]3CCCN(CC)C3)cc2C)c(O)c1 [Compound 89, (R)-2-(6-((1-ethylpiperidin-3-yl)amino)-4-methylpyridazin-3-yl)-5-ethynylphenol]
[3]
  microsomal CLint at 1 μM: 6.2 µL/min/mg
  half-life at 1 μM: 3.73 h
[2]
  IC50: 0.2 nM
[4]
  microsomal CLint at 1 μM: 8 µL/min/mg
  half-life at 1 μM: 2.88 h

## C#Cc1ccc(-c2nnc(N[C@@H]3CCCN(CC)C3)cc2C2CC2)c(O)c1 [Compound 90, (R)-2-(4-cyclopropyl-6-((1-ethylpiperidin-3-yl)amino)pyridazin-3-yl)-5-ethynylphenol]
[1]; [5]
  AUC(0-t): 4020 ng·h/mL
[1]; iv 5 mg/kg
  clearance: 20.7 mL/min/kg
  Vd: 6.23 L/kg
[1]; [6]
  half-life: 3.23 h
[1]
  bioavailability: 94.5%
[1]; po 10 mg/kg
  Tmax: 2 h
  Cmax: 900 ng/mL
[1]; [7]
  AUC(0-t): 7580 ng·h/mL
[1]; [8]
  half-life: 3.33 h
[2]
  IC50: 0.4 nM

## C#Cc1ccc(-c2nnc(N[C@@H]3CCCN(CC)C3)c(=O)n2C)c(O)c1 [Compound 93, (R)-6-((1-ethylpiperidin-3-yl)amino)-3-(4-ethynyl-2-hydroxyphenyl)-4-methyl-1,2,4-triazin-5(4H)-one]
[3]
  microsomal CLint at 1 μM: 5 µL/min/mg
  half-life at 1 μM: 4.62 h
[2]
  IC50: 1.4 nM
[4]
  microsomal CLint at 1 μM: 5.6 µL/min/mg
  half-life at 1 μM: 4.13 h

## C#Cc1ccc(-c2nnc(N[C@@H]3CCCN(CCO)C3)nc2C)c(O)c1 [Compound 99, (R)-5-ethynyl-2-(3-((1-(2-hydroxyethyl)piperidin-3-yl)amino)-5-methyl-1,2,4-triazin-6-yl)phenol]
[3]
  microsomal CLint at 1 μM: 6.6 µL/min/mg
  half-life at 1 μM: 3.5 h
[2]
  IC50: 0.7 nM
[4]
  microsomal CLint at 1 μM: 3.2 µL/min/mg
  half-life at 1 μM: 7.22 h

## C#Cc1ccc(-c2nnc(N[C@@H]3CCCN(C)C3)cc2C(F)(F)F)c(O)c1 [Compound 114, (R)-5-Ethynyl-2-(4-trifluoromethyl-6-((1-methylpiperidin-3-yl)amino)pyridazin-3-yl)phenol]
[3]
  microsomal CLint at 1 μM: 1 µL/min/mg
  half-life at 1 μM: 23.1 h
[2]
  IC50: 1.3 nM
[4]
  microsomal CLint at 1 μM: 0.4 µL/min/mg
  half-life at 1 μM: 57.8 h

## C#Cc1ccc(-c2nnc(N[C@@H]3CCCN(C)C3)cc2C(F)F)c(O)c1 [Compound 115, (R)-2-(4-Difluoromethyl-6-((1-methylpiperidin-3-yl)amino)pyridazin-3-yl)-5-ethynylphenol]
[3]
  microsomal CLint at 1 μM: 3.6 µL/min/mg
  half-life at 1 μM: 6.42 h
[2]
  IC50: 0.3 nM
[4]
  microsomal CLint at 1 μM: 20.2 µL/min/mg
  half-life at 1 μM: 1.14 h
